Data from patent publication US12599676B2, “Cytotoxic imidazo[1,2-A]pyridine compounds and their use in therapy” (MyricX Pharma Limited, priority 2022, dated 2026).
pIC50: −log10 of the molar value.

Tests used:
[1] = system: SU-DHL-10 cell line (human B cell lymphoma); assay: Cell cytotoxicity in SU-DHL-10 cell line (CellTiter-Glo); type: cell-based; details: 72 h treatment, CTG
Protocol: Certain Example compounds of the invention and Comparator Compound 1 were tested in the SU-DHL-10 cell line (human B cell lymphoma). Compounds which show efficacy in this assay are expected to be useful as agents for treating or preventing hyperproliferative disorders such as cancer.
Cells were seeded in 96-well microplates and treated with compounds or cisplatin (as a positive control) at 9 increasing concentrations in technical triplicate. […] On day 1, 90 μL of various cell suspensions with the number of cells ranging from 5000-8000 cells/well were seeded into wells of a 96-well plate (Corning). The number of cells to be seeded was previously determined. • 2. All 96-wells plates with cells were placed in an incubator overnight at 37° C. with 5% CO2. • 3. On day 2, cells were observed under a microscope ensuring the cells treated with vehicle control were in good condition. • 4. A dilution series of the test compounds and cisplatin were prepared at 10× the final concentrations required. 10 μL/well of 10× compound solution was added to the corresponding plates. The final volume was 100 μL/well for all the plates. Final DMSO concentration was 0.1%. • 5. On day 5 (after 72 hours of incubation), 50 μL of CTG reagent was added to each well. • 6. Contents were mixed for 5 minutes on an orbital shaker to facilitate cell lysis. • 7. The plate was allowed to incubate at room temperature for 10 minutes to stabilize luminescent signals.
Luminescence was recorded using an EnVision Multi Label Reader. Data analysis was performed using GraphPad Prism 8.0.
To calculate IC50, a concentration-response curve was generated using a nonlinear regression model with a sigmoidal concentration response. The formula for calculating the % of viable cells was shown below, and the IC50s are automatically generated by GraphPad Prism 8.0.
(LumTest article=luminescence in test article treated well; LumNone treated=luminescence in vehicle treated well; LumMedium control=luminescence in a well containing only medium and no cells; LumNone treated-LumMedium control was set as 100%)

[2] = Caco-2 cell permeability assay; type: in vitro ADME; details: human, Caco-2, pH 7.4, basal to apical Papp, pH 7.4, 2.5 h
Protocol: (§1) Certain Example compounds and Comparative Example 1 were tested for their apical to basal (AB) and basal to apical (BA) permeability in Caco-2 cells.
(§2) Cell Culture: Caco-2 cells were grown for 10 days in 96-well plates in HBSS buffer containing 10 mM HEPES. Both the apical and basal pH was buffered at pH 7.4. The apical/basal volumes were 75 μl and 250 μl respectively. The incubation time was 2.5 h at 37° C. (without shaking) under 5% CO2 & 95% relative humidity.
(§3) Cell Seeding: Cells were seeded at a density of 18750 cells/well (membrane area=0.0804 cm^2) in a 96 well plate.
(§4) AB Assay: 75 μl of cell suspension was added at a density 2.5×10^5 cells/ml to the apical wells. 40 ml media was added to the feeder tray. The plates were placed in the incubator (37° C., 5% CO2 and controlled humidity). The Caco-2 cells were grown for 10 days with a media change on every alternate day.
(§5) BA Assay: 25 μl of cell suspension was added at a density of 7.5×10^5 cells/ml to the bottom side (keeping the plate upside down) of apical wells. The plate (upside down position) was placed in the incubator (37° C., 5% CO2 and 95% Relative humidity) for 2 h. The plate was turned right side up. 75 μl media was added to the apical wells and 40 ml media to the feeder tray.
(§6) Permeablity Assay: The apical and basal wells were washed with buffer (pH 7.4) and 250 μl buffer was added to the wells of the basal plate. 75 μl of compound solution (2 μM, dissolved in water with 1% DMSO) was transferred to the apical wells (n=2). The apical plate was placed onto the basal plate. The lid was placed on to prevent evaporation. The assembly was incubated at 37° C. for 2.5 h (without shaking) under 5% CO2 and 95% relative humidity. After incubation the apical plate was separated from the basal plate. Aliquots were taken out from the acceptor and donor wells, diluted and quantified using LC-MS/MS along with initial donor samples.
(§7) Membrane Integrity Test: Solution in the apical wells was discarded by inverting the plate and soaking onto tissue paper. 250 μl buffer (pH 7.4) was added to each well of basal plate and 75 μl of Lucifer Yellow (LY; 0.1 mg/ml) in buffer (pH 7.4) to the wells of apical plate. The apical plate was placed onto the basal plate and the lid used to prevent evaporation. The assembly was incubated at 37° C. for 1 h (without shaking) under 5% CO2 and 95% relative humidity. The apical plate was separated from the basal plate. Fluorescence (Ex: 432 nm, Em: 530 nm) of aliquots (100 ul) was measured from basal wells. Fluorescence of 100 μl buffer (pH 7.4) and 100 μl LY(0.1 mg/ml) was also measured. Wells having more than 1% fluorescence intensity with respect to 0.1 mg/ml LY were considered non-integrated membrane. Such wells, if any, were not considered for permeability calculation.
(§8) Calculation: Drug was detected and quantified by LC-MS/MS. Data generated took the form of an apparent permeability (Papp) value. Papp=[Va/(AreaxTime)]×(LC-MS Area of Acceptor sample×Sample dilution factor/LC-MS Area of Initial Donor). Va=Volume of Acceptor Well (in ml)=0.25, Vd=Volume of Donor Well (in ml)=0.075, Area=Surface area of the membrane (cm2)=0.0804, Time=Time of incubation (sec)=9000 Results: The results of the assay are shown in Table 3 below.

Caco-2 cells = assay: Caco-2 cell permeability assay; type: in vitro ADME; details: 2 μM, pH 7.4, 2.5 h; for Caco-2 A-B: apical to basal Papp; for Caco-2 B-A: basal to apical Papp
Protocol: as §1, §2, §3, §4, §5, §6, §7, §8

| Papp B→A at 2.5 h, 2 μM [2] | Caco-2 A-B (Caco-2 cells) | Caco-2 B-A (Caco-2 cells) | SMILES | pIC50 [1] | pIC50 ([1]; Homo sapiens, SU-DHL10, 72 h) |
| --- | --- | --- | --- | --- | --- |
| 22.6 ×10⁻⁶ cm/s | 1.2 ×10⁻⁶ cm/s |  | Cc1c(CCOc2cc(F)ccc2-c2ccc3ncc(CN(C)C)n3c2)c(C(C)O)nn1C (single isomer, unassigned) [Example 3, 1-(4-(2-(2-(3-((dimethylamino)methyl)imidazo[1,2-a]pyridin-6-yl)-5-fluorophenoxy)ethyl)-1,5-dimethyl-1H-pyrazol-3-yl)ethan-1-ol] | 8.03 |  |
|  | 1.3 ×10⁻⁶ cm/s | 24.9 ×10⁻⁶ cm/s | Cc1c(CCOc2cc(F)ccc2-c2ccc3ncc(CN(C)C)n3c2)c(C(C)O)nn1C (single isomer, unassigned) [Example 4, 1-(4-(2-(2-(3-((dimethylamino)methyl)imidazo[1,2-a]pyridin-6-yl)-5-fluorophenoxy)ethyl)-1,5-dimethyl-1H-pyrazol-3-yl)ethan-1-ol] |  | 7.92 |
| 8.02 ×10⁻⁶ cm/s | 0.26 ×10⁻⁶ cm/s |  | CNCc1cnc2ccc(-c3ccc(F)cc3OCCc3c(C(O)C(C)(C)C)nn(C)c3C)cn12 (single isomer, unassigned) [Example 9, 1-(4-(2-(5-fluoro-2-(3-((methylamino)methyl)imidazo[1,2-a]pyridin-6-yl)phenoxy)ethyl)-1,5-dimethyl-1H-pyrazol-3-yl)-2,2-dimethylpropan-1-ol] | 9.22 |  |
|  | 0.305 ×10⁻⁶ cm/s | 8.89 ×10⁻⁶ cm/s | CNCc1cnc2ccc(-c3ccc(F)cc3OCCc3c(C(O)C(C)(C)C)nn(C)c3C)cn12 (single isomer, unassigned) [Example 10, 1-(4-(2-(5-fluoro-2-(3-((methylamino)methyl)imidazo[1,2-a]pyridin-6-yl)phenoxy)ethyl)-1,5-dimethyl-1H-pyrazol-3-yl)-2,2-dimethylpropan-1-ol] | 8.70 |  |
| 7.44 ×10⁻⁶ cm/s | 1.345 ×10⁻⁶ cm/s |  | Cc1c(CCOc2c(-c3ccc4ncc(CN(C)C)n4c3)ccc(F)c2F)c(C(O)C(C)(C)C)nn1C (single isomer, unassigned) [Example 15, 1-(4-(2-(6-(3-((dimethylamino)methyl)imidazo[1,2-a]pyridin-6-yl)-2,3-difluorophenoxy)ethyl)-1,5-dimethyl-1H-pyrazol-3-yl)-2,2-dimethylpropan-1-ol] | 8.92 |  |
|  | 1.395 ×10⁻⁶ cm/s | 9.06 ×10⁻⁶ cm/s | Cc1c(CCOc2c(-c3ccc4ncc(CN(C)C)n4c3)ccc(F)c2F)c(C(O)C(C)(C)C)nn1C (single isomer, unassigned) [Example 16, 1-(4-(2-(6-(3-((dimethylamino)methyl)imidazo[1,2-a]pyridin-6-yl)-2,3-difluorophenoxy)ethyl)-1,5-dimethyl-1H-pyrazol-3-yl)-2,2-dimethylpropan-1-ol] | 9.70 |  |
| 78 ×10⁻⁶ cm/s | 15.9 ×10⁻⁶ cm/s |  | Cc1c(CCOc2cc(F)ccc2-c2ccc3ncc(CN(C)C)n3c2)c(C(O)C(C)(C)C)nn1C (centres unmarked) [Example 11, 1-(4-(2-(2-(3-((dimethylamino)methyl)imidazo[1,2-a]pyridin-6-yl)-5-fluorophenoxy)ethyl)-1,5-dimethyl-1H-pyrazol-3-yl)-2,2-dimethylpropan-1-ol] |  | 9.05 |
| 29.4 ×10⁻⁶ cm/s | 3.5 ×10⁻⁶ cm/s |  | Cc1c(CCOc2cc(F)ccc2-c2ccc3ncc(CN(C)C)n3c2)c(C(C)(C)O)nn1C [Example 19, 2-(4-(2-(2-(3-((dimethylamino)methyl)imidazo[1,2-a]pyridin-6-yl)-5-fluorophenoxy)ethyl)-1,5-dimethyl-1H-pyrazol-3-yl)propan-2-ol] |  |  |
| 9.7 ×10⁻⁶ cm/s | 0 ×10⁻⁶ cm/s |  | Cc1c(CCOc2cc(F)ccc2-c2ccc3ncc(CCN)n3c2)c(C(C)(C)O)nn1C [Example 23, 2-(4-(2-(2-(3-(2-aminoethyl)imidazo[1,2-a]pyridin-6-yl)-5-fluorophenoxy)ethyl)-1,5-dimethyl-1H-pyrazol-3-yl)propan-2-ol] |  |  |

Further lines, the compound ahead of its results:

| SMILES | Papp B→A at 2.5 h, 2 μM [2] | Caco-2 A-B (Caco-2 cells) | Caco-2 B-A (Caco-2 cells) | pIC50 [1] | pIC50 ([1]; Homo sapiens, SU-DHL10, 72 h) |
| --- | --- | --- | --- | --- | --- |
| CNCc1cnc2ccc(-c3ccc(F)c(F)c3OCCc3c(C(O)C(C)(C)C)nn(C)c3C)cn12 (single isomer, unassigned) [Example 13, 1-(4-(2-(2,3-difluoro-6-(3-((methylamino)methyl)imidazo[1,2-a]pyridin-6-yl)phenoxy)ethyl)-1,5-dimethyl-1H-pyrazol-3-yl)-2,2-dimethylpropan-1-ol] |  |  |  | 9.15 |  |
| CNCc1cnc2ccc(-c3ccc(F)cc3OCCc3c(C(O)C(C)(C)C)nn(C)c3C)cn12 (centres unmarked) [Example 8, 1-(4-(2-(5-fluoro-2-(3-((methylamino)methyl)imidazo[1,2-a]pyridin-6-yl)phenoxy)ethyl)-1,5-dimethyl-1H-pyrazol-3-yl)-2,2-dimethylpropan-1-ol] |  |  |  |  | 9.15 |
| Cc1c(CCOc2c(-c3ccc4ncc(CN)n4c3)ccc(F)c2F)c(C(O)C(C)(C)C)nn1C (centres unmarked) [Example 17, 1-(4-(2-(6-(3-(aminomethyl)imidazo[1,2-a]pyridin-6-yl)-2,3-difluorophenoxy)ethyl)-1,5-dimethyl-1H-pyrazol-3-yl)-2,2-dimethylpropan-1-ol] |  |  |  |  | 9.00 |
| Cc1c(CCOc2c(-c3ccc4ncc(CN)n4c3)ccc(F)c2F)c(C(C)(C)O)nn1C [Example 20, 2-[4-(2-{6-[3-(aminomethyl)imidazo[1,2-a]pyridin-6-yl]-2,3-difluorophenoxy}ethyl)-1,5-dimethyl-1H-pyrazol-3-yl]propan-2-ol] |  |  |  |  | 7.92 |
| CCNCc1cnc2ccc(-c3ccc(F)cc3OCCc3c(C(C)(C)O)nn(C)c3C)cn12 [Example 22, 2-{4-[2-(2-{3-[(ethylamino)methyl]imidazo[1,2-a]pyridin-6-yl}-5-fluorophenoxy)ethyl]-1,5-dimethyl-1H-pyrazol-3-yl}propan-2-ol] |  |  |  |  | 8.05 |
| Cc1c(CCOc2cc(F)ccc2-c2ccc3ncc(CN(C)C)n3c2)c(C(O)C(C)C)nn1C (centres unmarked) [Example 24, 1-(4-(2-(2-(3-((dimethylamino)methyl)imidazo[1,2-a]pyridin-6-yl)-5-fluorophenoxy)ethyl)-1,5-dimethyl-1H-pyrazol-3-yl)-2-methylpropan-1-ol] |  |  |  |  | 9.15 |
| CNCc1cnc2ccc(-c3ccc(F)c(F)c3OCCc3c(C(O)C(C)C)nn(C)c3C)cn12 (centres unmarked) [Example 25, 1-{4-[2-(2,3-difluoro-6-{3-[(methylamino)methyl]imidazo[1,2-a]pyridin-6-yl}phenoxy)ethyl]-1,5-dimethyl-1H-pyrazol-3-yl}-2-methylpropan-1-ol] |  |  |  |  | 9.00 |
